Source: ChEMBL document CHEMBL1201862, “PubChem BioAssay data set” (2004)
The source made the active and inactive calls. No stated cut-off is given here; in the data, actives have a measured IC50 and inactives only a lower limit.

Molecular target: Envelope glycoprotein gp160 (Human immunodeficiency virus 1, UniProt Q6QLK5)
Experiment: inhibitors of HIV fusion peptide binding, primary screen, biochemical, uHTS, fluorescence dequenching (AID 1986)

Chain of Envelope glycoprotein gp160 (Q6QLK5 whole entry, the tested form may be a part): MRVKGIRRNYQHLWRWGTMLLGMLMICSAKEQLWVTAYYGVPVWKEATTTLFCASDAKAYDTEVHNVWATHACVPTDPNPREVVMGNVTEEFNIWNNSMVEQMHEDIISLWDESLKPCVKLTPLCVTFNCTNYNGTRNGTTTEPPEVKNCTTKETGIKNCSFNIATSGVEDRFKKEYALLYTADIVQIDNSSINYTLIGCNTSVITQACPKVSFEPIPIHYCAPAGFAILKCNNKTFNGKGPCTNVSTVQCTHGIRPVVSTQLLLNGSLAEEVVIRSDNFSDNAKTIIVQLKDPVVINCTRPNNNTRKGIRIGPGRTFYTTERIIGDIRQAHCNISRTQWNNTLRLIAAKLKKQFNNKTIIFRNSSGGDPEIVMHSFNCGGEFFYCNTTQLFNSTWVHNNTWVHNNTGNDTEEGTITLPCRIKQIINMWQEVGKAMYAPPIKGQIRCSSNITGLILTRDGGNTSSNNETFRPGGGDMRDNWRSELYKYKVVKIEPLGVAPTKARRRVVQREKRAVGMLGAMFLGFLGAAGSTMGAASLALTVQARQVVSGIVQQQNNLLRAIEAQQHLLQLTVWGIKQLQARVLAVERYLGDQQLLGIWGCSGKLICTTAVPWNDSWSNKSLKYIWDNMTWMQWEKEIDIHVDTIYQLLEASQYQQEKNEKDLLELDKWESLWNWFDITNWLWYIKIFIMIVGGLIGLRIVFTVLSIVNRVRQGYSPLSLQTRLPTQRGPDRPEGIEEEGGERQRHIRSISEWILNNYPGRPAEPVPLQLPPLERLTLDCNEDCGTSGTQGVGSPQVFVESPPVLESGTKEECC

Row | Structure (SMILES) | IC50
1 | O=C(O)c1cc(NN=C2c3ccccc3-c3ccccc32)ccc1Cl | 23.7 µM (active)
2 | CCOc1cc(/C=C2\SC(=S)N(C(C(=O)O)c3ccccc3)C2=O)ccc1O (stereo not drawn) | 22.6 µM (active)
3 | Cc1ccc(-c2cc(C(=O)Nc3ccc(S(=O)(=O)Nc4onc(C)c4C)cc3)c3ccccc3n2)cc1 | 18.1 µM (active)
